Assay results from patent US8030499B2, “1,3-dihydro-2H-indole-2-one compound and pyrrolidine-2-one compound fused with aromatic heterocycle” (Taisho Pharmaceutical Co., Ltd., priority 2005, dated 2011).
pIC50: −log10 of the molar value.

Legend:
human V1b receptor = target: T1, human V1b receptor (Homo sapiens, UniProt P47901); experiment: V1b receptor binding assay ([3H](Arg8)-vasopressin, crude membranes of CHO cells); settings: receptor binding test, human V1b, CHO cell membranes
T1 construct: expressed in transfected cells; host or cells: CHO cells
T1 sequence (P47901 1-424): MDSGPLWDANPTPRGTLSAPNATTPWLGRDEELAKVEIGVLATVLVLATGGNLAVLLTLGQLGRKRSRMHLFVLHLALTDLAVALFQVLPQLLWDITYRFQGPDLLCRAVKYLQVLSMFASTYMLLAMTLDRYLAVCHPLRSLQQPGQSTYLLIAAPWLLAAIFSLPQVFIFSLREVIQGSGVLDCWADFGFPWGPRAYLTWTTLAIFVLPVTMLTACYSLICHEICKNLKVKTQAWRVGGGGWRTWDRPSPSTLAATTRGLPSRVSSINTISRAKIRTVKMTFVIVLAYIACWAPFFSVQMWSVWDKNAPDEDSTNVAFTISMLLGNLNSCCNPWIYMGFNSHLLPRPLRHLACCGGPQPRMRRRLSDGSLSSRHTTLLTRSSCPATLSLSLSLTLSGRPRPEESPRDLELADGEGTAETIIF
Procedure: (§1) A summary of the methods is given below.
(§2) Each obtained homogenate was centrifuged for 20 minutes at 50,000×g and 4° C., the sediment was resuspended in a 50 mmol/L Tris hydrochloric acid buffer solution (pH7.4, containing 10 mmol/L magnesium chloride and 0.1% bovine serum albumin), which served as a crude membrane preparation. This crude membrane preparation was added with [^3H] (Arg^8) vasopressin (final concentration: 0.1 nmol/L to 0.4 nmol/L), and each test drug (final concentration: 0.1 nmol/L to lμmol/L or 0.01 nmol/L to 0.1 μmol/L) to 22° C. for 90 minutes. After the end of the reaction, the reaction solution was filtrated using a GF/C glass fiber filter, which had been presoaked in 0.3% polyethyleneimine for two hours. After the GF/C glass fiber filter was dried sufficiently, scintillator was added, and the radioactivity on the filter was measured using a liquid scintillation counter. Binding of [^3H] (Arg^8)-vasopressin in the presence of (Arg^8)-vasopressin, in the amounts of 0.1 μmol/L in the V1b receptor binding assay and 5 μmol/L in the V1a and V2 receptor binding assay, were taken as non-specific binding, and the value obtained by subtracting non-specific binding from the total binding in the absence (Arg^8)-vasopressin served as specific binding.
In addition, regarding the V1b receptor binding assay, the value obtained by, subtracting the amount of binding in the presence of 0.1 μmol/L test drug from the total amount of binding, divided by the amount of specific binding, served as the rate of inhibition (% of inhibition) of the test drug at the concentration tested.

human V1a receptor = target: T2, human V1a receptor (Homo sapiens, UniProt P37288); experiment: V1a receptor binding assay ([3H](Arg8)-vasopressin, crude membranes of 293FT cells); settings: receptor binding test, 293FT cell membranes
T2 construct: expressed in transfected cells; host or cells: 293FT cells
Procedure: as §1, §2

human V2 receptor = target: T3, human V2 receptor (Homo sapiens, UniProt P30518); experiment: V2 receptor binding assay ([3H](Arg8)-vasopressin, crude membranes of 293FT cells); settings: receptor binding test, human V2, 293FT cell membranes
T3 construct: expressed in transfected cells; host or cells: 293FT cells
Procedure: as §1, §2

T2 sequence (P37288 whole entry): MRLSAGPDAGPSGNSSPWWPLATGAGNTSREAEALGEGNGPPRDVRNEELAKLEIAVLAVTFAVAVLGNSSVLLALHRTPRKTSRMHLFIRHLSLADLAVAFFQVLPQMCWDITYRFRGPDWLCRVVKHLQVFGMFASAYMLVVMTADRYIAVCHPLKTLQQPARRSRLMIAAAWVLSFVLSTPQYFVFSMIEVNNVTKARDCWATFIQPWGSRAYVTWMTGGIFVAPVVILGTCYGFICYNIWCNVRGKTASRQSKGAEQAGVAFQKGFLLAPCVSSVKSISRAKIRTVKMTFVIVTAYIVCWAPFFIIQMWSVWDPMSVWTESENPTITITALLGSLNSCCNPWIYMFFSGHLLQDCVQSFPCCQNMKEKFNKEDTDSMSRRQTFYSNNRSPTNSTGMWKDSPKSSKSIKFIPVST
T3 sequence (P30518 whole entry): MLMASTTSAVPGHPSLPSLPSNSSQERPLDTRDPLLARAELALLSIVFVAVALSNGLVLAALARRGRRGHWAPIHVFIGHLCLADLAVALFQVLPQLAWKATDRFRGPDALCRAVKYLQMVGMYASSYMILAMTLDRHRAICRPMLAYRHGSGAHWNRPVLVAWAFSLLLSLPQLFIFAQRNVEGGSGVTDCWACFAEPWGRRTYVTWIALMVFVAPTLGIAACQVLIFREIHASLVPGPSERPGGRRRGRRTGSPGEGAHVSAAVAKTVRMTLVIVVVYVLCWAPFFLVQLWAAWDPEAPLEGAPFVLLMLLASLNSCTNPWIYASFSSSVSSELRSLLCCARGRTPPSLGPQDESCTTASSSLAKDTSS

pIC50 (human V1b receptor) | pIC50 (human V1a receptor) | pIC50 (human V2 receptor) | SMILES
9.25 | 6.24 | < 5.00 | COc1ccc(S(=O)(=O)N2C(=O)C(c3cc(CN(C)C)ccc3OC)(N3C[C@H](O)C[C@H]3C(=O)N(C)C)c3cc(Cl)ccc32)c(OC(F)(F)F)c1 (single isomer, unassigned) [Example 195 A]
8.20 | 5.39 | < 5.00 | COc1ccc(S(=O)(=O)N2C(=O)C(c3ccccc3OC)(N(C)[C@@H](C)C(=O)N(C)C)c3cc(Cl)ccc32)c(OC(F)(F)F)c1 (single isomer, unassigned) [Example 71]
7.82 | 5.08 | < 5.00 | COc1ccc(S(=O)(=O)N2C(=O)C(c3cc(C)ccc3OC)(N3C[C@H](O)C[C@H]3C(=O)N(C)C)c3cc(C#N)ccc32)c(OC(F)(F)F)c1 (single isomer, unassigned) [Example 126]
8.74 | 6.53 | 5.48 | COc1ccc(S(=O)(=O)N2C(=O)C(c3cc(N4CCOCC4)ccc3OC)(N3C[C@H](O)C[C@H]3C(=O)N(C)C)c3cc(Cl)ccc32)c(OC(F)(F)F)c1 (single isomer, unassigned) [Example 191]
8.96 | 6.45 | 5.50 | COc1ccc(S(=O)(=O)N2C(=O)C(c3cc(C)ccc3OC)(N3C[C@H](OCCCN(C)C)C[C@H]3C(=O)N(C)C)c3cc(Cl)ccc32)c(OC(F)(F)F)c1 (single isomer, unassigned) [Example 140]
8.54 | 6.19 | < 5.00 | COc1ccc(S(=O)(=O)N2C(=O)C(c3cc(C)ccc3OC)(N3CCCC[C@H]3C(=O)N(C)C)c3cc(Cl)ccc32)c(OC(F)(F)F)c1 (single isomer, unassigned) [Example 116]
8.37 | 6.10 | < 5.00 | COc1ccc(S(=O)(=O)N2C(=O)C(c3cc(-c4ccncc4)ccc3OC)(N3C[C@H](O)C[C@H]3C(=O)N(C)C)c3cc(Cl)ccc32)c(OC(F)(F)F)c1 (single isomer, unassigned) [Example 192]
7.51 | < 5.00 | < 5.00 | COc1ccc(S(=O)(=O)N2C(=O)C(c3ccccc3OC)(N3Cc4ccccc4C[C@H]3C(=O)N(C)C)c3cc(Cl)ccc32)c(OC(F)(F)F)c1 (single isomer, unassigned) [Example 38 A]
9.49 | 7.00 | 5.30 | COc1ccc(S(=O)(=O)N2C(=O)C(c3cc(CCN4CCCCC4)ccc3OC)(N3C[C@H](O)C[C@H]3C(=O)N(C)C)c3cc(Cl)ccc32)c(OC(F)(F)F)c1 (single isomer, unassigned) [Example 225]
7.74 | 6.17 | < 5.00 | COc1ccc(S(=O)(=O)N2C(=O)C(O[C@@H](C)C(=O)N(C)C)(c3ccccc3OC)c3cc(Cl)ccc32)c(OC(F)(F)F)c1 (single isomer, unassigned) [Example 81]
7.82 | 5.83 | < 5.00 | COc1ccc(S(=O)(=O)N2C(=O)C(N[C@@H](C)C(=O)N(C)C)(c3ccccc3OC)c3cc(Cl)ccc32)c(OC(F)(F)F)c1 (single isomer, unassigned) [Example 61]
7.96 | 5.17 | < 5.00 | COc1ccc(S(=O)(=O)N2C(=O)C(c3cc(C)ccc3OC)(N3C[C@H](O)C[C@H]3C(=O)N(C)C)c3cc(Br)cnc32)c(OC(F)(F)F)c1 (single isomer, unassigned) [Example 120]
